Laboratory results taken from BigSolDB 2.1.

CC(=O)[C@@]12O[C@@H]1C[C@H]1[C@@H]3CCC4=CC(=O)CC[C@]4(C)[C@H]3CC[C@@]12C
Details | solubility (mole fraction)
in DMSO, 312.45 K | 0.00539
in DMSO, 315.5 K | 0.00572
in DMSO, 318.35 K | 0.00657
in DMSO, 322.35 K | 0.00756
in DMSO, 326.5 K | 0.0087
in DMSO, 328.65 K | 0.00937
in DMSO, 331.2 K | 0.0101
in DMSO, 334.9 K | 0.0115
in DMSO, 339.15 K | 0.0135
in DMSO, 343.95 K | 0.0161
in DMSO, 348.35 K | 0.0188
in DMSO, 353.45 K | 0.0223
in isopropanol, 296.65 K | 0.00307
in isopropanol, 299.55 K | 0.00341
in isopropanol, 303.25 K | 0.00405
in isopropanol, 306.35 K | 0.00486
in isopropanol, 311.75 K | 0.00598
in isopropanol, 314.8 K | 0.00689
in isopropanol, 317.85 K | 0.00752
in isopropanol, 322.95 K | 0.00992
in isopropanol, 325.6 K | 0.011
in isopropanol, 328.75 K | 0.0125
in isopropanol, 333.25 K | 0.0152
in isopropanol, 337.45 K | 0.0177
in n-butanol, 300.85 K | 0.00412
in n-butanol, 303.9 K | 0.00473
in n-butanol, 306.75 K | 0.00543
in n-butanol, 309.85 K | 0.00624
in n-butanol, 314.25 K | 0.00765
in n-butanol, 319.18 K | 0.00919
in n-butanol, 323.55 K | 0.0109
in n-butanol, 328.05 K | 0.0134
in n-butanol, 332.75 K | 0.0162
in n-butanol, 336.66 K | 0.019
in n-butanol, 340.3 K | 0.0219
in n-butanol, 343.5 K | 0.0244
in n-propanol, 299.15 K | 0.00349
in n-propanol, 304.05 K | 0.00459
in n-propanol, 307.5 K | 0.00524
in n-propanol, 311.55 K | 0.00623
in n-propanol, 313.7 K | 0.00684
in n-propanol, 316.25 K | 0.00769
in n-propanol, 320.65 K | 0.00908
in n-propanol, 324.25 K | 0.0105
in n-propanol, 328.25 K | 0.0122
in n-propanol, 332.05 K | 0.0143
in n-propanol, 335.25 K | 0.0165
in n-propanol, 340.6 K | 0.0203

CC(=O)[C@@]12O[C@@H]1C[C@H]1[C@@H]3CCC4=CC(=O)CC[C@]4(C)[C@H]3[C@H](O)C[C@@]12C
Details | solubility (mole fraction)
in 1,4-dioxane, 298 K | 0.00293
in 1,4-dioxane, 302.75 K | 0.00353
in 1,4-dioxane, 306.39 K | 0.00408
in 1,4-dioxane, 310.55 K | 0.00447
in 1,4-dioxane, 314.75 K | 0.00518
in 1,4-dioxane, 317.25 K | 0.0055
in 1,4-dioxane, 320.35 K | 0.00605
in 1,4-dioxane, 325.05 K | 0.00687
in 1,4-dioxane, 328.55 K | 0.00765
in 1,4-dioxane, 332.05 K | 0.00845
in 1,4-dioxane, 335.35 K | 0.00932
in 1,4-dioxane, 340.15 K | 0.0105
in DMSO, 297.75 K | 0.00423
in DMSO, 301.3 K | 0.00515
in DMSO, 311.06 K | 0.00772
in DMSO, 315.15 K | 0.00843
in DMSO, 319.05 K | 0.00966
in DMSO, 324.25 K | 0.0112
in DMSO, 327.15 K | 0.0126
in DMSO, 329.55 K | 0.0141
in DMSO, 333.67 K | 0.016
in DMSO, 337.43 K | 0.0178
in DMSO, 340.25 K | 0.0196
in DMSO, 344.65 K | 0.0228
in isopropanol, 297.95 K | 0.000542
in isopropanol, 300.25 K | 0.000643
in isopropanol, 303.45 K | 0.000717
in isopropanol, 308.05 K | 0.000952
in isopropanol, 312.65 K | 0.00126
in isopropanol, 316.35 K | 0.00147
in isopropanol, 320.75 K | 0.0019
in isopropanol, 323.85 K | 0.00212
in isopropanol, 327.45 K | 0.00262
in isopropanol, 331.95 K | 0.00311
in isopropanol, 335.65 K | 0.00368
in isopropanol, 340.25 K | 0.00456
in n-butanol, 298.75 K | 0.000597
in n-butanol, 304.45 K | 0.000775
in n-butanol, 307.35 K | 0.000935
in n-butanol, 310.75 K | 0.00113
in n-butanol, 315.67 K | 0.00143
in n-butanol, 320.75 K | 0.00177
in n-butanol, 324.35 K | 0.00205
in n-butanol, 328.55 K | 0.00237
in n-butanol, 331.65 K | 0.00268
in n-butanol, 334.15 K | 0.00304
in n-butanol, 336.45 K | 0.00334
in n-butanol, 340.15 K | 0.00384
in n-propanol, 300.5 K | 0.000796
in n-propanol, 303.25 K | 0.000933
in n-propanol, 306.75 K | 0.00109
in n-propanol, 309.9 K | 0.00125
in n-propanol, 312.7 K | 0.00142
in n-propanol, 317.15 K | 0.00172
in n-propanol, 321.67 K | 0.00208
in n-propanol, 324.85 K | 0.00235
in n-propanol, 327.95 K | 0.0027
in n-propanol, 332.65 K | 0.00322
in n-propanol, 336.85 K | 0.00382
in n-propanol, 341.65 K | 0.00463
